Consider nine compounds from ChEMBL document CHEMBL1128149, “Molecular design of novel PGI2 agonists without PG skeleton. IV” (Bioorg Med Chem Lett, 1995).

The target in one assay is Prostacyclin receptor (Homo sapiens, UniProt P43119). The experiment in a line: Compound was tested for its binding affinity against Prostaglandin I2 receptor using conventional ligand assay by the displacement of [3H]-iloprost from human platelets. Background: Displacement assays read how much labelled ligand stays bound in the presence of the test substance.
Sequence of Prostacyclin receptor (P43119 whole entry): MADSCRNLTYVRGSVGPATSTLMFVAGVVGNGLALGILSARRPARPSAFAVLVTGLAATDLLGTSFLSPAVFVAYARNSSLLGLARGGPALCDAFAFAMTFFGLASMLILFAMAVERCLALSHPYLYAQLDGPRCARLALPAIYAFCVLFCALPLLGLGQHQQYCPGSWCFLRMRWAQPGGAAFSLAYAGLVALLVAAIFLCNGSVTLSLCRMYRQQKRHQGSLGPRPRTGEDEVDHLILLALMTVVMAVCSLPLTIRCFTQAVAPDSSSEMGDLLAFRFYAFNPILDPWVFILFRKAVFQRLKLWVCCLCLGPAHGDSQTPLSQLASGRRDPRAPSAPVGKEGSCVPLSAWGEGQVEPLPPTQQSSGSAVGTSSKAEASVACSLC
The species named for the next assay is Homo sapiens. Kind of assay: Compound was tested for its inhibitory activity against 4 uM ADP-induced platelet aggregation of human platelet rich plasma. The format is functional.

As a reminder, the IC50 is the midpoint of a concentration-inhibition curve. `O=C(O)COc1cccc2c1CCCC2CCn1cc(C(c2ccccc2)c2ccccc2)cn1` (stereo not drawn): the IC50 at Prostacyclin receptor was found to be 18 nM; in the assay filed under Homo sapiens (Homo sapiens, Plasma), 93 nM.
As for `O=C(O)COc1cccc2c1CCC=C2CCn1cc(C(c2ccccc2)c2ccccc2)cn1`, the IC50 at Prostacyclin receptor was 2000 nM; in the assay filed under Homo sapiens (Homo sapiens, Plasma), 8600 nM.
Compound `O=C(O)COc1cccc2c1CCC(Cc1nc(C(c3ccccc3)c3ccccc3)co1)C2` (stereo not drawn) had a half-inhibitory concentration (IC50) in the assay filed under Homo sapiens of 5100 nM.
The compound `O=C(O)COc1cccc2c1CCC(CC1C=NC(C(c3ccccc3)c3ccccc3)=N1)C2` (stereo not drawn) displayed an IC50 in the assay listed under Homo sapiens (Homo sapiens, Plasma) of 12000 nM.
Take `O=C(O)COc1cccc2c1CCC(Cc1coc(C(c3ccccc3)c3ccccc3)n1)C2` (stereo not drawn): the IC50 in the assay filed under Homo sapiens amounted to 1000 nM.
On the same count and under the same terms, to `O=C(O)COc1cccc2c1CCC(CC1=NC(C(c3ccccc3)c3ccccc3)=NC1)C2` (stereo not drawn) belongs 1000 nM.
`O=C(O)COc1cccc2c1CCC(Cn1cnc(C(c3ccccc3)c3ccccc3)c1)C2` (stereo not drawn) yielded an IC50 in the assay filed under Homo sapiens (Homo sapiens, Plasma) of 670 nM.
In the case of `O=C(O)COc1cccc2c1CCC(Cn1cc(C(c3ccccc3)c3ccccc3)cn1)C2` (stereo not drawn), the IC50 on Prostacyclin receptor was determined as 40 nM; in the assay filed under Homo sapiens, 530 nM.
Consider `O=C(O)COc1cccc2c1CCC(Cn1cc(C(c3ccccc3)c3ccccc3)cn1)=C2`, for which the concentration for half-maximal inhibition (IC50) stood at 8 nM at Prostacyclin receptor and 26 nM in the assay listed under Homo sapiens (Homo sapiens, Plasma).
